The values that follow come from patent publication US5405958A, “Photochromic spiro(indoline)naphthoxazine compounds” (Transitions Optical, Inc., priority 1992, dated 1995).

What all share (format): physicochemical
Series [1] in a line: Photochromic response (sensitivity, saturation optical density) of imbibed polymer test squares on optical bench. The settings on record: for Δ OD @ SATURATION: UV exposure continued for 20 minutes; for Δ OD/min. SENSITIVITY: first five (5) seconds of UV exposure, expressed per minute, photopic filters, about one sun. As for the experimental part: (§1) These compounds were imbibed by thermal transfer into test squares of a polymeric matrix prepared from a diethylene glycol bis(allyl carbonate) composition by the following procedure: Each photochromic compound was dissolved in toluene to form a 4 weight percent solution of the compound. A piece of No. 4 Whatman filter paper was saturated with the toluene solution of the photochromic compound and allowed to air dry. The dried filter paper was placed on one side of the polymer test square, which measured 1/8 inch (0.3 centimeter)×2 inch (5.1 centimeters)×2 inch (5.1 centimeters). A piece of untreated filter paper was placed on the other side of the polymer test square and the resulting sandwich placed between two plates of flat aluminum metal plates. […] The imbibed test squares were washed with acetone after removal from the oven.
(§2) The imbibed polymer test squares were tested for photochromic response rates on an optical bench. The samples were illuminated by a 150 watt Xenon lamp fitted with a copper sulfate bath and a neutral density filter at an intensity of about one sun. A second beam of light provided by a filtered tungsten lamp arranged to pass through the sample area exposed by the UV source was used to monitor changes in transmission of the sample over different wavelength ranges in the visible region of the spectrum. The intensity of the monitoring beam after passing through the sample was measured by means of an IL-1500 radiometer equipped with a silicon detector head and matching filters.
(§3) The Δ OD/min., which represents the sensitivity of the photochromic compound's response to UV light, was measured using photopic filters on the silicon detector. The response of the filtered detector approximated the luminosity curve. The Δ OD was measured over the first five (5) seconds of UV exposure, then expressed on a per minute basis. The saturation optical density (OD) was taken under identical conditions as the Δ OD/min., except UV exposure was continued for 20 minutes. The lambda max reported in Table 2 is the wavelength in the ultraviolet range closest to the visible spectrum or in the threshold range, i.e., 390 to 410 nanometers, of the visible spectrum at which the maximum absorption and activation of the photochromic compound occurs in the polymer matrix test squares.

Series [2] in a line: Bleach rate of imbibed polymer test squares. To be noted: for BLEACH RATE T 1/2: 25.7±0.5° C., after removal of activating light. As for the experimental part:
as §1, §2

Series [3] can be described thus: Lambda max in imbibed polymer matrix test squares. The settings on record: for LAMBDA MAX: in polymer matrix test squares of diethylene glycol bis(allyl carbonate). Here is the method: as §1, §3
Series [4] is described as follows: UV spectrophotometer lambda max in diethylene glycol dimethyl ether solution. The settings on record: for lambda max compared with compound samples A, B and D (in words): Table 1 values vs. samples A, B and D of Table 2; for LAMBDA MAX: in diethylene glycol dimethyl ether, approximately 0.5 milligrams per milliliter. Here is the method:
The principal products of Examples 1, 2 and 3 were dissolved in diethylene glycol dimethyl ether. The concentrations of the resulting solutions were approximately 0.5 milligrams per milliliter. Each solution was tested in a UV spectrophotometer to determine its lambda max. The lambda max reported in Table 1 is the wavelength in the ultraviolet range closest to the visible spectrum or in the threshold range, i.e., 390 to 410 nanometers, of the visible spectrum, at which the maximum absorption and activation of the photochromic compound occurs in diethylene glycol dimethyl ether.

A short description of series [5]: Colour change of diethylene glycol dimethyl ether solution on ultraviolet irradiation.

On to “1propyl-3,3,4,5(or 3,3,5,6)tetramethyl-spiro[indoline2,3[3H]naphth[2,1b][1,4]oxazine]”, for which, in series [1], the “Δ OD @ SATURATION” value is recorded as 0.11 Δ OD and the “Δ OD/min. SENSITIVITY” value is listed as 0.21 Δ OD/min. The “BLEACH RATE T 1/2” value in series [2] came to 0.783 min. Also, the “LAMBDA MAX” value in series [3] is on record as 346.

On to “1,3,3,4,5(or 1,3,3,5,6,)-pentamethyl-9'-methoxy-carbonyl-8'-acetoxy-spiro[indoline-2,3'-[3H]naphth[2,1-b][1,4]oxazine] [Example 3]”, for which, in series [4], the “lambda max compared with compound samples A, B and D (in words)” value is on record as “relatively high lambda max values”; the “LAMBDA MAX” value amounted to 374. Besides, in series [5], the “colour of solution after the ultraviolet light was removed” value was “returned to its original colorless condition”, the “colour of solution before irradiation” value is “colorless” and the “colour of solution when irradiated with ultraviolet light” value (shortened to “colour of solution when irradiated”) was “changed to blue”.

For the compound “1,3,3,4,5(or 1,3,3,5,6,)-pentamethyl-9'-methoxycarbonyl-8'-hydroxy-spiro[indoline-2,3'-[3H]naphth[2,1-b][1,41oxazine] [Example 1]”, in series [4], the “lambda max compared with compound samples A, B and D (in words)” value is on record as “relatively high lambda max values”; the “LAMBDA MAX” value is on record as 403. Moreover, in series [5], the “colour of solution after the ultraviolet light was removed” value is “returned to its original slightly colored condition”, the “colour of solution before irradiation” value is “slight yellow cast” and the “colour of solution when irradiated” value is “changed to green”.

“1,3,3,4,5(or 1,3,3,5,6,)-pentamethyl-9'-methoxycarbonyl-8'-methoxy-spiro[indoline-2,3'-[3H]naphth[2,1-b][1,41oxazine] [Example 2]”: in series [4], the “lambda max compared with compound samples A, B and D (in words)” value is listed as “relatively high lambda max values”; the “LAMBDA MAX” value is listed as 383. Moreover, in series [5], the “colour of solution after the ultraviolet light was removed” value was “returned to its original colorless condition”, the “colour of solution before irradiation” value is “colorless” and the “colour of solution when irradiated” value is listed as “changed to blue”.

`CCCN1c2cc(C)c(C)cc2C(C)(C)C12C=Nc1c(ccc3ccc(OC)cc13)O2` (centres unmarked) [A, 1propyl-3,3,5,6-tetramethyl-9methoxy-spiro[indoline2,3[3H]naphth[2,1b][1,]oxazine]]: in series [1], the “Δ OD @ SATURATION” value was 0.11 Δ OD and the “Δ OD/min. SENSITIVITY” value was 0.15 Δ OD/min. For the same compound, the “BLEACH RATE T 1/2” value in series [2] worked out at 1.17 min. Besides, the “LAMBDA MAX” value in series [3] is 336.

As for `CCCN1c2cc(C)c(C)cc2C(C)(C)C12C=Nc1c(ccc3ncccc13)O2` (centres unmarked) [B, 1propyl-3,3,5,6-tetramethyl-spiro[indoline2,3[3H]pyrido[3,2f][1,4]benzoxaine]], in series [1], the “Δ OD @ SATURATION” value was 0.36 Δ OD and the “Δ OD/min. SENSITIVITY” value was 0.44 Δ OD/min. Besides, the “BLEACH RATE T 1/2” value in series [2] came out at 1.15 min. Further, the “LAMBDA MAX” value in series [3] came out at 350.

As for “1-propyl-3,3,4,5(or 3,3,5,6)-tetramethyl-9'-methoxycarbonyl-8'-acetoxy-spiro[indoline-2,3'-[3H]naphth[2,1-b][1,4]oxazine] [Compound C]”, in series [1], the “Δ OD @ SATURATION” value is given as 0.42 Δ OD and the “Δ OD/min. SENSITIVITY” value is 0.46 Δ OD/min. Moreover, in series [1] (polymer test squares), the “optical density at saturation compared with the other compounds (in words)” value was “higher optical density at saturation” and the “sensitivity compared with the other compounds (in words)” value is on record as “improved sensitivity”. Besides, the “BLEACH RATE T 1/2” value in series [2] was 2.27 min. Besides, the “bleach rate (in words)” value in series [2] (polymer test squares) is on record as “acceptable bleach rate”. Also, in series [3], the “LAMBDA MAX” value is 374. The “absorption maxima in the UV spectrum compared with compounds A, B and D (in words)” value in series [3] (polymer test squares) was “unexpectedly higher than compounds A, B and D”.
